From US8148391B2 (Cephalon, Inc., priority 2006, dated 2012)
Like-named read-outs stand apart in the source and are kept apart here. Each block holds one molecule with its values, some of them ahead of it.

Key:
[1] = target: T1, baculovirus-expressed ALK (Homo sapiens, UniProt Q9UM73); test: ALK Kinase Assay (ELISA-type, time-resolved fluorescence); assay type: biochemical
T1 construct: host or cells: baculovirus expression system
Procedure, shortened: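 Plates coated with phospholipase C-γ substrate (10 μg/mL in TBS); reaction started with 30 ng/ml ALK and run 15 min at 37° C. Phosphorylated substrate detected with Eu-N1-labeled PT66 antibody. IC50 from sigmoidal variable-slope fit of percent inhibition vs log concentration.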

[2] = target: T2, c-Met (cytoplasmic domain) (Homo sapiens, UniProt P08581); test: c-Met Kinase Assay (same methods as for ALK, with modifications); assay type: biochemical
T2 construct: 10 ng/mL c-Met (cytoplasmic domain, Invitrogen Corporation #PV3143); purchased Invitrogen Corporation PV3143
Procedure, shortened: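 Europium-labeled PT66 antibody (Eu-N1) detects substrate phosphorylation on wells coated with phospholipase C-γ at 10 μg/mL. The kinase, the cytoplasmic domain of c-Met at 10 ng/mL, starts the reaction, which proceeds 15 minutes at 37° C.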

[3] = 1 μM ATP (Km level), 30 ng/ml ALK, 37° C., 15 minutes, read-out: ALK Activity (ALK kinase inhibition, IC50 class)
[4] = 1 μM ATP (Km level), 10 ng/mL c-Met, read-out: cMet Activity (c-Met kinase inhibition, IC50 class)
[5] = 1 μM ATP (Km level), read-out: ALK Activity (ALK Kinase Inhibition, IC50)
[6] = 1 μM ATP (Km level), read-out: cMet Activity (c-Met Kinase Inhibition, IC50)
[7] = ALK kinase inhibition, 1 μM ATP, read-out: ALK Activity
[8] = c-Met kinase inhibition, 1 μM ATP, read-out: cMet Activity
[9] = ALK kinase inhibition, 1 μM ATP (Km level), read-out: ALK Activity
[10] = c-Met kinase inhibition, 1 μM ATP (Km level), read-out: cMet Activity

T1 sequence (Q9UM73 19-1620): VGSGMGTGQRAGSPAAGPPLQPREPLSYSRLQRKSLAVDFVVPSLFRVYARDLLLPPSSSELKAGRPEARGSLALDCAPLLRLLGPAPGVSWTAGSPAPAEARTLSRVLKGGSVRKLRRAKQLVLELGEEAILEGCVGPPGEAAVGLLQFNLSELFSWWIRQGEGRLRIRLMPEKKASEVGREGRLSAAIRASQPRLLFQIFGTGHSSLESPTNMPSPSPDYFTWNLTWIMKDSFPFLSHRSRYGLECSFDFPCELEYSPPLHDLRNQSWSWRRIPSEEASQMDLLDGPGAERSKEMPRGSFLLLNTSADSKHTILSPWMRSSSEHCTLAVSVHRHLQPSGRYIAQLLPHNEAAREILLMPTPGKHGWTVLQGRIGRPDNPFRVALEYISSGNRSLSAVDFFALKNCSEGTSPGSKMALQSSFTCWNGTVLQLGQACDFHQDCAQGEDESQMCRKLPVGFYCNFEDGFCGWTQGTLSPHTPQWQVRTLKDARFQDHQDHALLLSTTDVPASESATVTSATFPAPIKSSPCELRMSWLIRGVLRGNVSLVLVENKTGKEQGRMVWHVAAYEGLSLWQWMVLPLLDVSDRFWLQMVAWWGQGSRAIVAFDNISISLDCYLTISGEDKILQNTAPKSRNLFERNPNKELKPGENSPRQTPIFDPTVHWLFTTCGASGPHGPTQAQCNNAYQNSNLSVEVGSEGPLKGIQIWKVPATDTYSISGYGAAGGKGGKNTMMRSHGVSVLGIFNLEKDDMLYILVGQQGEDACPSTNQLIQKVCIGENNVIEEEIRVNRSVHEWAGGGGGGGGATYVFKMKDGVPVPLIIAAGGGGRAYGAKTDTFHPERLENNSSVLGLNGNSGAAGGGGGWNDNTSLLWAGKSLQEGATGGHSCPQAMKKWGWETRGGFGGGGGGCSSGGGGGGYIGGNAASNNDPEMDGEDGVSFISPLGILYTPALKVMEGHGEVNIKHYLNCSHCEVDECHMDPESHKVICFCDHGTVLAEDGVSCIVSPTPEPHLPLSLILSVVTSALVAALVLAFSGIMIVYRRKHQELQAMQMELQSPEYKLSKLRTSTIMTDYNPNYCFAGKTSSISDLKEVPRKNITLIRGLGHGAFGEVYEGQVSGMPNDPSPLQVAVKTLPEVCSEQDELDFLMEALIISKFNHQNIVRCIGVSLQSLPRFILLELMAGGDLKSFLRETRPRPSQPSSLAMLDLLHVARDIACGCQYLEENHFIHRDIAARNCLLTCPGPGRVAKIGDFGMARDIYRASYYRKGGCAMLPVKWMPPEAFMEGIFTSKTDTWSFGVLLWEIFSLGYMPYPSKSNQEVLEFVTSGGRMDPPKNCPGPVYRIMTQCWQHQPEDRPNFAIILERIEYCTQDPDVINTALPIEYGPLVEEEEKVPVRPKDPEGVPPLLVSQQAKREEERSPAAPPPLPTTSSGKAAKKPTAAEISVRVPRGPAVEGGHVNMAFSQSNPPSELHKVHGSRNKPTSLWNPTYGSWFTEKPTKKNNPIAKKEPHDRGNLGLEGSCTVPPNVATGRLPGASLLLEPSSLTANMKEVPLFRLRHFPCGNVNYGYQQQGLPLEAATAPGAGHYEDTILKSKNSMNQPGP
T2 sequence (P08581 956-1390 limits assumed): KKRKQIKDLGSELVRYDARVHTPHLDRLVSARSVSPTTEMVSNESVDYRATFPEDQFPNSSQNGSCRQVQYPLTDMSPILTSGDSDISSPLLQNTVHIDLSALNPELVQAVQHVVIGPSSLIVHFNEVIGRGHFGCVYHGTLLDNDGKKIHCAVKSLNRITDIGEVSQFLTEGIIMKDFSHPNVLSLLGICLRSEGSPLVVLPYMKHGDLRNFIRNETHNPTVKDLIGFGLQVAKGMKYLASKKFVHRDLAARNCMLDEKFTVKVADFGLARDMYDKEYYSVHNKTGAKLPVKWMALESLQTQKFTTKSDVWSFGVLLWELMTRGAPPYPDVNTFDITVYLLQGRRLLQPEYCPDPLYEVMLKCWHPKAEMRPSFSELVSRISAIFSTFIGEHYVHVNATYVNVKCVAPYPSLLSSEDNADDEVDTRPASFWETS

IC50 [1, 3]: < 100 nM
IC50 [2, 4]: > 10000 nM
SMILES: COCCN1CCc2cc(Nc3ncc(Cl)c(N[C@H]4[C@@H](C(N)=O)[C@@H]5C=C[C@H]4C5)n3)c(OC)cc2CC1 [Example 1315, (1S,2S,3R,4R)-3-{5-Chloro-2-[8-methoxy-3-(2-methoxy-ethyl)-2,3,4,5-tetrahydro-1H-benzo[d]azepin-7-ylamino]-pyrimidin-4-ylamino}-bicyclo[2.2.1]hept-5-ene-2-carboxylic acid amide]

IC50 [1, 5]: 100 to 1000 nM
IC50 [2, 6]: > 10000 nM
SMILES: CCN1CCN(CC)c2cc(Nc3ncc(Cl)c(Nc4ccc5c(c4)N(CC)CCN(CC)C5=O)n3)ccc2C1 [Example 722, 8-[5-Chloro-2-(1,4-diethyl-2,3,4,5-tetrahydro-1H-benzo[e][1,4]diazepin-8-ylamino)-pyrimidin-4-ylamino]-1,4-diethyl-1,2,3,4-tetrahydro-benzo[e][1,4]diazepin-5-one]

IC50 [1, 7]: < 100 nM
IC50 [2, 8]: > 10000 nM
SMILES: COc1cc(N2CCOCC2)ccc1Nc1nc(Nc2ccc3c(c2)N(CC(C)C)C(=O)CCC3(C)C)ncc1Cl [Example 1594, 8-[5-Chloro-4-(2-methoxy-4-morpholin-4-yl-phenylamino)-pyrimidin-2-ylamino]-1-isobutyl-5,5-dimethyl-1,3,4,5-tetrahydro-benzo[b]azepin-2-one]

IC50 [1, 5]: < 100 nM
IC50 [2, 6]: > 10000 nM
SMILES: COc1cc2c(cc1Nc1ncc(Cl)c(Nc3ccc(N(C)C)cc3-n3cccn3)n1)CCN(CC(=O)N(C)C)CC2 [Example 631, 2-{7-[5-Chloro-4-(4-dimethylamino-2-pyrazol-1-yl-phenylamino)-pyrimidin-2-ylamino]-8-methoxy-1,2,4,5-tetrahydro-benzo[d]azepin-3-yl}-N,N-dimethyl-acetamide]

IC50 [1, 5]: < 100 nM
IC50 [2, 6]: 100 to 1000 nM
SMILES: COCCN1CCc2ccc(Nc3ncc(Cl)c(Nc4ccccc4-c4ncccn4)n3)cc2CC1 [Example 977, 5-Chloro-N*2*-[3-(2-methoxy-ethyl)-2,3,4,5-tetrahydro-1H-benzo[d]azepin-7-yl]-N*4*-(2-pyrimidin-2-yl-phenyl)-pyrimidine-2,4-diamine]

IC50 [1, 7]: 1000 to 10000 nM
IC50 [2, 8]: < 100 nM
SMILES: CNC(=O)c1sc(C)c(C)c1Nc1nc(Nc2ccc3c(c2)CCOC(=O)N3C)ncc1Cl [Example 1772, 5-Methyl-3-[5-chloro-2-(5-methyl-6-oxo-5,6,8,9-tetrahydro-7-oxa-5-aza-benzocyclohepten-2-ylamino)-pyrimidin-4-ylamino]-4-methyl-thiophene-2-carboxylic acid methylamide]

IC50 [1, 5]: 100 to 1000 nM
IC50 [2, 6]: > 10000 nM
SMILES: CCN1C(=O)CCCc2c1ccc(Nc1ncc(Cl)c(NC3C4C=CC(C4)C3C(=O)N(C)C)n1)c2OC (stereo not drawn) [Example 602, (2-exo-3-exo)-3-[5-Chloro-2-(1-ethyl-6-methoxy-2-oxo-2,3,4,5-tetrahydro-1H-benzo[b]azepin-7-ylamino)-pyrimidin-4-ylamino]-bicyclo[2.2.1]hept-5-ene-2-carboxylic acid dimethylamide]

IC50 [1, 3]: < 100 nM
IC50 [2, 4]: 100 to 1000 nM
SMILES: COCCN1CCc2ccc(Nc3ncc(Cl)c(NC4CCCCC4)n3)cc2CC1 [Example 1377, 5-Chloro-N(4)-cyclohexyl-N(2)-[3-(2-methoxy-ethyl)-2,3,4,5-tetrahydro-1H-benzo[d]azepin-7-yl]-pyrimidine-2,4-diamine]

IC50 [1, 7]: < 100 nM
IC50 [2, 8]: < 100 nM
SMILES: CNC(=O)c1cc(F)ccc1Nc1nc(Nc2ccc3c(c2)CCOC(=O)N3C)ncc1Cl [Example 1752, 2-[5-Chloro-2-(5-methyl-6-oxo-5,6,8,9-tetrahydro-7-oxa-5-aza-benzocyclohepten-2-ylamino)-pyrimidin-4-ylamino]-5-fluoro-N-methyl-benzamide]

IC50 [1, 3]: < 100 nM
IC50 [2, 4]: > 10000 nM
SMILES: COc1cc2c(cc1Nc1ncc(Cl)c(N[C@@H]3CCCC[C@H]3NS(C)(=O)=O)n1)CCC(NCCO)CC2 (single isomer, unassigned) [Example 1094]

IC50 [1, 3]: 100 to 1000 nM
IC50 [2, 4]: 1000 to 10000 nM
SMILES: COCCN1CCc2ccc(Nc3ncc(Cl)c(Nc4c(F)cc(F)cc4N4CCOCC4)n3)cc2CC1 [Example 1287, 5-Chloro-N(4)-(2,4-difluoro-6-morpholin-4-yl-phenyl)-N(2)-[3-(2-methoxy-ethyl)-2,3,4,5-tetrahydro-1H-3-benzazepin-7-yl]-pyrimidine-2,4-diamine]

IC50 [1, 9]: < 100 nM
IC50 [2, 10]: 1000 to 10000 nM
SMILES: COc1cc(N2CCOCC2)ccc1Nc1nc(Nc2ccc3c(c2)CCC(=O)CC3)ncc1Cl [Example 175, 2-[5-Chloro-4-(2-methoxy-4-morpholin-4-yl-phenylamino)-pyrimidin-2-ylamino]-5,6,8,9-tetrahydro-benzocyclohepten-7-one]

IC50 [1, 5]: < 100 nM
IC50 [2, 6]: > 10000 nM
SMILES: CCN1CC(=O)N(CC)c2cc(Nc3ncc(Cl)c(Nc4ccccc4S(=O)(=O)N(C)C)n3)c(OC)cc2C1 [Example 738, 2-[5-Chloro-2-(1,4-diethyl-7-methoxy-2-oxo-2,3,4,5-tetrahydro-1H-benzo[e][1,4]diazepin-8-ylamino)-pyrimidin-4-ylamino]-N,Ndimethyl-benzenesulfonamide]

IC50 [1, 7]: < 100 nM
IC50 [2, 8]: > 10000 nM
SMILES: COCCN1CCc2cc(Nc3ncc(Cl)c(N[C@@H]4CCCC[C@H]4N(C)S(C)(=O)=O)n3)c(OC)cc2CC1 [Example 1676, N-((1R,2R)-2-{5-Chloro-2-[8-methoxy-3-(2-methoxy-ethyl)-2,3,4,5-tetrahydro-1H-benzo[d]azepin-7-ylamino]-pyrimidin-4-ylamino}-cyclohexyl)-N-methyl-methanesulfonamide]

IC50 [1, 7]: 100 to 1000 nM
IC50 [2, 8]: 100 to 1000 nM
SMILES: Cc1cnc(-c2cccc(F)c2Nc2nc(Nc3ccc4c(c3)CCOC(=O)N4C)ncc2Cl)o1 [Example 1789, 2-{5-Chloro-4-[2-fluoro-6-(5-methyl-oxazol-2-yl)-phenylamino]-pyrimidin-2-ylamino}-5-methyl-8,9-dihydro-5H-7-oxa-5-aza-benzocyclohepten-6-one]

IC50 [1, 5]: < 100 nM
IC50 [2, 6]: 100 to 1000 nM
SMILES: CCN1CCN(CC)c2cc(Nc3ncc(Cl)c(Nc4ccccc4S(=O)(=O)C(C)C)n3)ccc2C1 [Example 728, 5-Chloro-N(2)-(1,4-diethyl-2,3,4,5-tetrahydro-1H-benzo[e][1,4]diazepin-8-yl)-N(4)-[2-(propane-2-sulfonyl)-phenyl]-pyrimidine-2,4-diamine]

IC50 [1, 5]: < 100 nM
IC50 [2, 6]: 1000 to 10000 nM
SMILES: CCN1CCN(CC)c2cc(Nc3ncc(Cl)c(Nc4ccc5c(c4)CN(CCOC)CCS5)n3)ccc2C1 [Example 733, 5-Chloro-N(2)-(1,4-diethyl-2,3,4,5-tetrahydro-1H-benzo[e][1,4]diazepin-8-yl)-N(4)-[8-(2-methoxy-ethyl)-6,7,8,9-tetrahydro-5-thia-8-aza-benzocyclohepten-2-yl]-pyrimidine-2,4-diamine]

IC50 [1, 5]: < 100 nM
IC50 [2, 6]: > 10000 nM
SMILES: COc1cc2c(cc1Nc1ncc(F)c(Nc3ccc(N4CCN(C)CC4)cc3OC)n1)CCN(CCS(C)(=O)=O)CC2 [Example 805, 5-Fluoro-N*2*-[3-(2-methanesulfonyl-ethyl)-8-methoxy-2,3,4,5-tetrahydro-1H-benzo[d]azepin-7-yl]-N*4*-[2-methoxy-4-(4-methyl-piperazin-1-yl)-phenyl]-pyrimidine-2,4-diamine]

IC50 [1, 5]: < 100 nM
IC50 [2, 6]: > 10000 nM
SMILES: COCCN1CCc2cc(Nc3ncc(Cl)c(NC4C5C=CC(C5)C4C(=O)N(C)C)n3)c(OC)cc2CC1 (stereo not drawn) [Example 606, (2-exo-3-exo)-3-{5-Chloro-2-[8-methoxy-3-(2-methoxy-ethyl)-2,3,4,5-tetrahydro-1H-benzo[d]azepin-7-ylamino]-pyrimidin-4-ylamino}-bicyclo[2.2.1]hept-5-ene-2-carboxylic acid dimethylamide]

IC50 [1, 5]: < 100 nM
IC50 [2, 6]: > 10000 nM
SMILES: COc1cc2c(cc1Nc1ncc(Cl)c(Nc3ccccc3-c3ncccc3C)n1)CCN(CC(=O)N(C)C)CC2 [Example 1000, 2-(7-{5-Chloro-4-[2-(3-methyl-pyridin-2-yl)-phenylamino]-pyrimidin-2-ylamino}-8-methoxy-1,2,4,5-tetrahydro-benzo[d]azepin-3-yl)-N,N-dimethyl-acetamide]

IC50 [1, 5]: 1000 to 10000 nM
IC50 [2, 6]: > 10000 nM
SMILES: COc1ccc(Nc2ncc(Cl)c(N[C@H]3[C@@H](C(N)=O)[C@@H]4C=C[C@H]3C4)n2)c2c1CCCC(N1CCOCC1)C2 (single isomer, unassigned) [Example 942]

IC50 [1, 7]: 1000 to 10000 nM
IC50 [2, 8]: > 10000 nM
SMILES: CNC(=O)c1cc(C)cc(C)c1Nc1nc(Nc2ccc3c(c2)CN(C)C(=O)CC3)ncc1Cl [Example 1801, 2-[5-Chloro-2-(2-methyl-3-oxo-2,3,4,5-tetrahydro-1H-benzo[c]azepin-8-ylamino)-pyrimidin-4-ylamino]-3,5,N-trimethyl-benzamide]

IC50 [1, 3]: < 100 nM
IC50 [2, 4]: 1000 to 10000 nM
SMILES: COCCNC1CCc2cc(Nc3ncc(Cl)c(Nc4ccccc4S(=O)(=O)C(C)C)n3)c(OC)cc2CC1 (stereo not drawn) [Example 1084, 5-Chloro-N*2*-[3-methoxy-7-(2-methoxy-ethylamino)-6,7,8,9-tetrahydro-5H-benzocyclohepten-2-yl]-N*4*-[2-(propane-2-sulfonyl)-phenyl]-pyrimidine-2,4-diamine]

IC50 [1, 9]: < 100 nM
IC50 [2, 10]: 100 to 1000 nM
SMILES: CCN1CCc2ccc(Nc3ncc([N+](=O)[O-])c(Nc4ccccc4C(=O)NC)n3)cc2CC1 [Example 193, 2-[2-(3-Ethyl-2,3,4,5-tetrahydro-1H-benzo[d]azepin-7-ylamino)-5-nitro-pyrimidin-4-ylamino]-N-methyl-benzamide]
